Values of other authors, collected in patent CN103893129A, “帕潘立酮缓释微球及其注射剂和该缓释微球的制备方法” (CHONGQING DAXIN PHARMACEUTICALS Co Ltd OF PKU INTERNATIONAL …, priority 2012, dated 2014).

Test system: schizophrenia (精神分裂症)

Cc1nc2n(c(=O)c1CCN1CCC(c3noc4cc(F)ccc34)CC1)CCCC2O (centres unmarked) [帕潘立酮, 6,7,8,9-四氢-3-(2-(4-(6-氟-1,2-苯并异唑-3-基)-1-哌啶基)乙基)-9-羟基-2-甲基-4H-吡啶并[2,1-a]嘧啶-4-酮]
efficacy on positive and negative symptoms of schizophrenia (clinical): 对精神分裂症阳性症状和阴性症状均有疗效
relapse rate of schizophrenia (patients): 可有效延迟精神分裂症的复发率
